Experimental data: ChEMBL document CHEMBL1649074, “Aurora kinase inhibitors based on the imidazo[1,2-a]pyrazine core: fluorine and deuterium incorporation improve oral absorption and exposure” (J Med Chem, 2011)
pIC50: −log10 of the molar value.

Key:
[1] = biological target: T1, Aurora kinase A (Homo sapiens, UniProt O14965); assay: Inhibition of Aurora A
T1 sequence (O14965 whole entry): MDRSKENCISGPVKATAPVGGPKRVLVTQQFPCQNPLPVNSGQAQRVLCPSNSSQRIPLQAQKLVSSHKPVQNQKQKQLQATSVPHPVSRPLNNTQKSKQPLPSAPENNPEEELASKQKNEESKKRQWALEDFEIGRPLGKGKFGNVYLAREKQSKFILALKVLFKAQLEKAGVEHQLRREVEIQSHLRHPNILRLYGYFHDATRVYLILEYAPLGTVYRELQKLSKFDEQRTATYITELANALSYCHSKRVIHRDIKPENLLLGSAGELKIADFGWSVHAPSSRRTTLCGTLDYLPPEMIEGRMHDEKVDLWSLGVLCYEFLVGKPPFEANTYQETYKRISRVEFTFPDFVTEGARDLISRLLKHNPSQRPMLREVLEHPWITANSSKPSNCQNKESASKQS

[2] = biological target: Serine/threonine-protein kinase Chk1 (Homo sapiens, UniProt O14757); assay: Inhibition of CHK1
[3] = Oral AUC in Beagle dog at 10 mg/kg, po; format: ADME, organism-based, Canis lupus familiaris; design: dose 10 mg/kg, route oral; settings: in vivo
[4] = Oral bioavailability in Sprague-Dawley rat at 30 mg/kg; format: ADME, organism-based; settings: in vivo
[5] = AUC (0 to 24 hrs) in CD1 mouse at 3 mg/kg, iv; format: ADME, organism-based; design: time < 24 hr, dose 3 mg/kg, route intravenous; settings: plasma
[6] = biological target: Hepatocyte growth factor receptor (Homo sapiens, UniProt P08581); assay: Inhibition of MET
[7] = AUC (0 to 24 hrs) in Sprague-Dawley rat at 30 mg/kg, po; format: ADME, organism-based; design: time < 24 hr, dose 30 mg/kg, route oral; settings: plasma
[8] = AUC (0 to 24 hrs) in CD1 mouse at 50 mg/kg, po; format: ADME, organism-based; design: time < 24 hr, dose 50 mg/kg, route oral; settings: plasma
[9] = (§1) AUC (0 to 24 hrs) in Beagle dog at 10 mg/kg, po; format: ADME, organism-based, Canis lupus familiaris, Plasma; design: time < 24 hr, dose 10 mg/kg, route oral; settings: beagle, plasma
[10] = biological target: Interleukin-1 receptor-associated kinase 4 (Homo sapiens, UniProt Q9NWZ3); assay: Inhibition of IRAK4
[11] = biological target: Aurora kinase B (Homo sapiens, UniProt Q96GD4); assay: Inhibition of Aurora B
[12] = Clearance in cynomolgus monkey at 0.3 mg/kg, iv; format: ADME, organism-based, Macaca fascicularis; design: dose 0.3 mg/kg, route intravenous; settings: in vivo
[13] = AUC (0 to 24 hrs) in Sprague-Dawley rat at 10 mg/kg, iv; format: ADME, organism-based; design: time < 24 hr, dose 10 mg/kg, route intravenous; settings: plasma
[14] = Clearance in CD1 mouse at 3 mg/kg, iv; format: ADME, organism-based; design: dose 3 mg/kg, route intravenous; settings: in vivo
[15] = Clearance in Sprague-Dawley rat at 10 mg/kg, iv; format: ADME, organism-based; design: dose 10 mg/kg, route intravenous; settings: in vivo
[16] = Oral AUC in Sprague-Dawley rat at 30 mg/kg, po; format: ADME, organism-based; design: dose 30 mg/kg, route oral; settings: in vivo
[17] = biological target: Mitogen-activated protein kinase 1 (Homo sapiens, UniProt P28482); assay: Inhibition of ERK2
[18] = Oral bioavailability in cynomolgus monkey at 30 mg/kg; format: ADME, organism-based, Macaca fascicularis; settings: in vivo
[19] = biological target: T2, Receptor-type tyrosine-protein kinase FLT3 (Homo sapiens, UniProt P36888); assay: Inhibition of FLT3
T2 sequence (P36888 whole entry): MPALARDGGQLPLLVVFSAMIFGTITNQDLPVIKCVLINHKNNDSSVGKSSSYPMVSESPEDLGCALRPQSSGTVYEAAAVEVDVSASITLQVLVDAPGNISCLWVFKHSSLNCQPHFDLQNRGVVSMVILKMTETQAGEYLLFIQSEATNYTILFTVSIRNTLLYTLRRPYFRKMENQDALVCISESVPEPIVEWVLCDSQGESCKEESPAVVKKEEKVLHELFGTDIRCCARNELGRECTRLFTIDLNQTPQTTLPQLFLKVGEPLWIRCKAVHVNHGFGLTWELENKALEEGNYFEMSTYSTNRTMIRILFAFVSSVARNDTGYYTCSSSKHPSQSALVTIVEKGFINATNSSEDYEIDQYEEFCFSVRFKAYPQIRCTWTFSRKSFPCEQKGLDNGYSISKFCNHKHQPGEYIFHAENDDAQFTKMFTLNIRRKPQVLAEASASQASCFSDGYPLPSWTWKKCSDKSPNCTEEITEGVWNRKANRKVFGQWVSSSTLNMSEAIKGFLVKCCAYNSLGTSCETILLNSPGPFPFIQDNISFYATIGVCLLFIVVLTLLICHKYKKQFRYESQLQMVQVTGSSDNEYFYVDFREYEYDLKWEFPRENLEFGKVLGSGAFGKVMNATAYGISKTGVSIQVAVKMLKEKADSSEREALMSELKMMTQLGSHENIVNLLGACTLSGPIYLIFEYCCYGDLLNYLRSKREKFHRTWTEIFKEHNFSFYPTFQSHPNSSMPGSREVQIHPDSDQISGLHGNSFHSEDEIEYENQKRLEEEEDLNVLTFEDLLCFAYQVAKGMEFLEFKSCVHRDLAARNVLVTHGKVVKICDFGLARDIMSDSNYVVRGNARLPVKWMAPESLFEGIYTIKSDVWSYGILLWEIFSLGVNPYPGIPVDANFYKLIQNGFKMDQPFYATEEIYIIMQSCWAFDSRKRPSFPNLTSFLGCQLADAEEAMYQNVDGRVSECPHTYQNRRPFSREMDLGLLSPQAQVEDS

[20] = biological target: Vascular endothelial growth factor receptor 2 (Homo sapiens, UniProt P35968); assay: Inhibition of KDR
[21] = AUC (0 to 6 hrs) in rat at 10 mg/kg, po; format: ADME, organism-based; design: time < 6 hr, dose 10 mg/kg, route oral; settings: plasma
[22] = Plasma clearance in rat; format: ADME, organism-based
[23] = Oral bioavailability in CD1 mouse at 50 mg/kg; format: ADME, organism-based; settings: in vivo
[24] = AUC (0 to 24 hrs) in cynomolgus monkey at 30 mg/kg, po; format: ADME, organism-based, Macaca fascicularis; design: time < 24 hr, dose 30 mg/kg, route oral; settings: plasma
[25] = biological target: T3, Serine/threonine-protein kinase Nek2 (Homo sapiens, UniProt P51955); assay: Inhibition of NEK2
T3 sequence (P51955 whole entry): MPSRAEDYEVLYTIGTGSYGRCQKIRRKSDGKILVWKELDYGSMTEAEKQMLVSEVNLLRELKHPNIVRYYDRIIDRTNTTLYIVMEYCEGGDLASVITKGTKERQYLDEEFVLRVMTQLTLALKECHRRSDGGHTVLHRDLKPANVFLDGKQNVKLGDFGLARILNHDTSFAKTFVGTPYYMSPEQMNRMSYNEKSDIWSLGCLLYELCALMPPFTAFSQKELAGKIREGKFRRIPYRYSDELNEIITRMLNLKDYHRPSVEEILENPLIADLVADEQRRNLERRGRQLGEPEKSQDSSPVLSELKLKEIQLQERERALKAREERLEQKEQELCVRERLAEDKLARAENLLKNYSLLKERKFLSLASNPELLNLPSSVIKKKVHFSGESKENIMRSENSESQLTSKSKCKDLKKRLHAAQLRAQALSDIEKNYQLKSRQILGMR

[26] = Oral AUC in cynomolgus monkey at 10 mg/kg, po; format: ADME, organism-based, Macaca fascicularis; design: dose 10 mg/kg, route oral; settings: in vivo
[27] = AUC (0 to 24 hrs) in cynomolgus monkey at 1 mg/kg, iv; format: ADME, organism-based, Macaca fascicularis; design: time < 24 hr, dose 1 mg/kg, route intravenous; settings: plasma
[28] = system: Canis familiaris; assay: as §1; format: ADME, organism-based, Canis lupus familiaris, Plasma; design: time < 24 hr, dose 10 mg/kg, route oral; settings: in vivo, 24 h
[29] = Clearance in Beagle dog at 1 mg/kg, iv; format: ADME, organism-based, Canis lupus familiaris; design: dose 1 mg/kg, route intravenous; settings: in vivo
[30] = biological target: Ribosomal protein S6 kinase alpha-3 (Homo sapiens, UniProt P51812); assay: Inhibition of RSK2

Mitogen-activated protein kinase 1, sequence (P28482 whole entry): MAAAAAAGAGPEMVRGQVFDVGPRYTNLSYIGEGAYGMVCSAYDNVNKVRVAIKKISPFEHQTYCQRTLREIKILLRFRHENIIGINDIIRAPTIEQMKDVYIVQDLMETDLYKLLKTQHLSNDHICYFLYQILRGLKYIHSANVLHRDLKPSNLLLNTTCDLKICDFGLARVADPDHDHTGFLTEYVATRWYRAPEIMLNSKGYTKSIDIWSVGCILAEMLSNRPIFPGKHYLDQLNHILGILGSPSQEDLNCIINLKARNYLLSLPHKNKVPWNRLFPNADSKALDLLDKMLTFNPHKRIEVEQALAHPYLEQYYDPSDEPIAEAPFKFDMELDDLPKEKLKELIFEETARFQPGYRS
Hepatocyte growth factor receptor, sequence (P08581 whole entry): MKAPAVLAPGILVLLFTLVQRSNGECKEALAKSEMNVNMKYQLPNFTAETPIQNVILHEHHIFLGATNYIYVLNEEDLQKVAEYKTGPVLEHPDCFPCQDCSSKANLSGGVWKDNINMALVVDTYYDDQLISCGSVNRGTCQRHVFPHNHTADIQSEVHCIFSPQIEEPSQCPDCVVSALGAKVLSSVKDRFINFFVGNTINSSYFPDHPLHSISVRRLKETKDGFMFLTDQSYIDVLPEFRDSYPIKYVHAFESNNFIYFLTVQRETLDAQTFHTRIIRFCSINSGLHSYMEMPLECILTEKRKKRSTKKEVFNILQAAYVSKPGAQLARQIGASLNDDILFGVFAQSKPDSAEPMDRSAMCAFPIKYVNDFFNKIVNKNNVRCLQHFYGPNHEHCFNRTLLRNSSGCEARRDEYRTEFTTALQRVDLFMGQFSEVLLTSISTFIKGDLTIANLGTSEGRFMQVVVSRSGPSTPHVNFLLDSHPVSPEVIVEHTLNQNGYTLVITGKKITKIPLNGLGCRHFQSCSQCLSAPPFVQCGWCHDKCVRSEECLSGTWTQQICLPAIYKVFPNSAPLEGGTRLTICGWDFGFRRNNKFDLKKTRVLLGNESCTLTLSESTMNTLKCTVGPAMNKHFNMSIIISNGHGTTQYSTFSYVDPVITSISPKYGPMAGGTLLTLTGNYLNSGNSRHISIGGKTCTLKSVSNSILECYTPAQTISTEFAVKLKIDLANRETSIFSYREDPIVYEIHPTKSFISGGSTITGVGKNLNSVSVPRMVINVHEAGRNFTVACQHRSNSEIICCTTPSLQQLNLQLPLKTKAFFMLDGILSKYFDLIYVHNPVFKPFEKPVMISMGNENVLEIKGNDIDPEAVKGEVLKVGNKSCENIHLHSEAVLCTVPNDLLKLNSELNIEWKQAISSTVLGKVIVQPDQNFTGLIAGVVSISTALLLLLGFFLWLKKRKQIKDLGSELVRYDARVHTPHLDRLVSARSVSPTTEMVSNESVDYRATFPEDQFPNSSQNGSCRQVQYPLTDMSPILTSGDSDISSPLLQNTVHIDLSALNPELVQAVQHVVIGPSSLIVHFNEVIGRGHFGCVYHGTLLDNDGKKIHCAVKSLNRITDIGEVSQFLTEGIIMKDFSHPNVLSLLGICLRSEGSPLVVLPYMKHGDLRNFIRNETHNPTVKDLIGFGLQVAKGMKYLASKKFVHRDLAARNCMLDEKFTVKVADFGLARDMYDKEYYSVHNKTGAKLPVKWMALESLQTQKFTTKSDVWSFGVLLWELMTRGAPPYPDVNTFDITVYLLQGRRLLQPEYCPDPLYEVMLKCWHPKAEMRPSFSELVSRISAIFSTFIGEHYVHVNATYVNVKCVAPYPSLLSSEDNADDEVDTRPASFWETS
Vascular endothelial growth factor receptor 2, sequence (P35968 whole entry): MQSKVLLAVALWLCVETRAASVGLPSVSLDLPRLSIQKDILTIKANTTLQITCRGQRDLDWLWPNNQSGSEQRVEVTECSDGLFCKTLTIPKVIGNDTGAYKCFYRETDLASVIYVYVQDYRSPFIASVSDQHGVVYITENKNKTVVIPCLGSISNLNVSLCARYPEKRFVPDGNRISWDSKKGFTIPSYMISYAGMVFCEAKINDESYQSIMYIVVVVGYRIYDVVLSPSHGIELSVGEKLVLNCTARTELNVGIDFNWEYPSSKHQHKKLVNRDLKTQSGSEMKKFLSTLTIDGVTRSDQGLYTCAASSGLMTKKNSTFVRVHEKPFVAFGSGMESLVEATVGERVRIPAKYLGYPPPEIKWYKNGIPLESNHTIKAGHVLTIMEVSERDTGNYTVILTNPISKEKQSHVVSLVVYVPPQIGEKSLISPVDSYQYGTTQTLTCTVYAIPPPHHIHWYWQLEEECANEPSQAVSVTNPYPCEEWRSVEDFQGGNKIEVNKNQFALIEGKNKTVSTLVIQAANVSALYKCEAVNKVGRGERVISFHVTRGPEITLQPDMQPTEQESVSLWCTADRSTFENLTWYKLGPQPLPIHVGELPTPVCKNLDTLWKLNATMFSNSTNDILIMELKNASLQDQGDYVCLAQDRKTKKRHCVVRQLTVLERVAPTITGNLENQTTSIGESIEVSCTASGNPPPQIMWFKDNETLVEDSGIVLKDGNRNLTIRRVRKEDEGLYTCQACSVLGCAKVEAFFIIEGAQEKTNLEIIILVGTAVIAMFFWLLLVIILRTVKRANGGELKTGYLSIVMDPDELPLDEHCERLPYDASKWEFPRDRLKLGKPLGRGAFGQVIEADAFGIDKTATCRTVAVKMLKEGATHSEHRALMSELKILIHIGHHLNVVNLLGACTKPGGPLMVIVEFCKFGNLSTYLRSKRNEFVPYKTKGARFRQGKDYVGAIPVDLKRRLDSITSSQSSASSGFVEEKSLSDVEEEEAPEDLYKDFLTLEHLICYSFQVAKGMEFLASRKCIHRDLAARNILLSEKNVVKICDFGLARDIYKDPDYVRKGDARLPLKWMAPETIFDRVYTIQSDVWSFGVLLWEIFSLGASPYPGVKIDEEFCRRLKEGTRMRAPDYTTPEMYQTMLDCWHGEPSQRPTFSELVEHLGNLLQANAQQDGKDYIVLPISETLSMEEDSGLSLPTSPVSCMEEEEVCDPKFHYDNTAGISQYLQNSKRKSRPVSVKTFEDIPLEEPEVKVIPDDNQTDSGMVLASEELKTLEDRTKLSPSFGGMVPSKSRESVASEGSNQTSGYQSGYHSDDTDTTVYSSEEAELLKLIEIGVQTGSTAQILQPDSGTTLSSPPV
Aurora kinase B, sequence (Q96GD4 whole entry): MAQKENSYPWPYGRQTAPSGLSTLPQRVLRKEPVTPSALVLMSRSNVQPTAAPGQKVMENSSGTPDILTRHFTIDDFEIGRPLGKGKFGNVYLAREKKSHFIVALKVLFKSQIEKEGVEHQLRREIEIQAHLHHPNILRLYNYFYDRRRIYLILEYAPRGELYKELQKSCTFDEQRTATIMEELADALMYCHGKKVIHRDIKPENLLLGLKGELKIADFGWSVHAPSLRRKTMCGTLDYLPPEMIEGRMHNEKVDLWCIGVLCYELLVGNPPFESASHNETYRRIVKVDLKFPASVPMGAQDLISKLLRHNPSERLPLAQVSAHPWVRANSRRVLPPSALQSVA
Serine/threonine-protein kinase Chk1, sequence (O14757 whole entry): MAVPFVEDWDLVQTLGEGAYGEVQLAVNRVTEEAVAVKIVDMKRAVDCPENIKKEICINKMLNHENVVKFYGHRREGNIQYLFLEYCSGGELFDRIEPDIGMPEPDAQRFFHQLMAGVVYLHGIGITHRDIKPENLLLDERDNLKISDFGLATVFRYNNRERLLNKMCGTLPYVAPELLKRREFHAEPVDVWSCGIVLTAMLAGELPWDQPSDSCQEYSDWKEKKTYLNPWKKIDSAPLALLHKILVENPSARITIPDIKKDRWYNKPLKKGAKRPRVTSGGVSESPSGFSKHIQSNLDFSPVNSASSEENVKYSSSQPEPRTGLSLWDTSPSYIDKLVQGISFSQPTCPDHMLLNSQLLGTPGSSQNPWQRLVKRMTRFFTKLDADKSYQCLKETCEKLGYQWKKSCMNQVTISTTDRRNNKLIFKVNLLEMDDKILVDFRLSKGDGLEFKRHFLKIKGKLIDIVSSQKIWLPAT
Interleukin-1 receptor-associated kinase 4, sequence (Q9NWZ3 whole entry): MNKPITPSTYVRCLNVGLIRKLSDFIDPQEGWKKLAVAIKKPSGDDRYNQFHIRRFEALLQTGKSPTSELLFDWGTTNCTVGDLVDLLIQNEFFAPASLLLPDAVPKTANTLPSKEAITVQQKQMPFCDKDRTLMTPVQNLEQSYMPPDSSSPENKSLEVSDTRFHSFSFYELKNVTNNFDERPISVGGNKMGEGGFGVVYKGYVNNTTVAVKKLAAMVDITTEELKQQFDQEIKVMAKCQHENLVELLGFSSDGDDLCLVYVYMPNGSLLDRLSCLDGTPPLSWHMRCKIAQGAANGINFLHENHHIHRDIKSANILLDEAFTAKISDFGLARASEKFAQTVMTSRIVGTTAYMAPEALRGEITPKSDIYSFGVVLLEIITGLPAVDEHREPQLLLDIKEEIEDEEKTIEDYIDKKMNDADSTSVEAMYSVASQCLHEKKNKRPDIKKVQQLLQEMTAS

Row | pIC50 [1] | pIC50 [2] | bioavailability [4] [%] | AUC(0-t) at 24 h [5] [µM·h] | pIC50 [6] | AUC(0-t) at 24 h [7] [µM·h] | AUC(0-t) at 24 h [8] [µM·h] | pIC50 [10] | pIC50 [11] | AUC(0-t) at 24 h [13] [µM·h] | clearance [14] [mL/min/kg] | clearance [15] [mL/min/kg] | pIC50 [17] | bioavailability [18] [%] | pIC50 [19] | pIC50 [20] | AUC(0-t) at 6 h [21] [µM·h] | clearance [22] [mL/min/kg] | bioavailability [23] [%] | pIC50 [25] | Compound | further results
1 | ≥ 8.40 | 6.19 | 19 | 0.9 | < 7.00 | 6.9 | 9.4 | 6.00 | ≥ 7.89 | 12.2 | 127 | 33 | < 7.00 | 2 | 7.12 | 6.26 | 1.61 | 33 | 60 | < 7.00 | Cc1cn2c(-c3cn[nH]c3)cnc2c(Nc2cc(CN3CCC(F)(F)C3)ns2)n1.Cl | AUC [3]: 2.6 µM·h; AUC(0-t) at 24 h [9]: 2.6 µM·h; clearance [12]: 18 mL/min/kg; AUC [16]: 6.9 µM·h; AUC(0-t) at 24 h [24]: 1.7 µM·h; AUC [26]: 0.8 µM·h
2 | ≥ 8.40 | 6.70 | 33 | 5.9 | < 7.00 | 62.1 | 35.9 | 6.19 | ≥ 7.89 | 63.3 | 20.3 | 6.3 | < 7.00 | 2 | 7.34 | 6.47 | 4.73 | 6.3 | 37 | < 7.00 | Cl.[2H]C([2H])(c1cc(Nc2nc(C)cn3c(-c4cn[nH]c4)cnc23)sn1)N1CCC(F)(F)C1 | AUC(0-t) at 24 h [27]: 9.5 µM·h; AUC [28]: 3.1 µM·h; clearance [29]: 4.5 mL/min/kg; AUC(0-t) at 24 h [24]: 5.1 µM·h
3 | ≥ 8.40 |  |  |  | < 7.00 |  |  |  | ≥ 7.89 |  |  |  | < 7.00 |  | 8.30 | > 9.00 |  |  |  | < 7.00 | CCN(Cc1cc(Nc2nc(C)cn3c(-c4cn[nH]c4)cnc23)sn1)C(C)(C)CO | pIC50 [30]: < 7.00
